Test results from patent publication US11427550B2, “5-fluorouracil compounds” (NUCORION PHARMACEUTICALS, INC., priority 2018, dated 2022).
Like-named read-outs stand apart in the source and are kept apart here.

Test: Tissue distribution following oral administration of reference compounds and the disclosed compounds
Assay type: in vivo, rats
Details: rat
Protocol: The liver specificity of the disclosed compounds is compared relative to a corresponding active compound in liver and other organs that could be targets of toxicity.
Reference compounds and the cyclic deoxyribonucleotide, acetal, and hemiaminal compounds are administered at 5-50 mg/kg to fasted rats by oral gavage. Plasma concentrations of the metabolites, and parent compounds in circulation and in the hepatic portal vein are determined by HPLC-UV, and the liver, small intestine, and other organ concentrations are measured by LC-MS using the standard chromatography method.

[1] = drug level in the blood 1 hour after oral administration at 5 mg/kg dose in rats (Table 1), read-out: Drugblood
[2] = drug level in the liver 1 hour after oral administration at 5 mg/kg dose in rats (Table 1), read-out: Drugliver
[3] = prodrug level in the blood 1 hour after oral administration at 5 mg/kg dose in rats (Table 2), read-out: Drugblood
[4] = prodrug level in the liver 1 hour after oral administration at 5 mg/kg dose in rats (Table 2), read-out: Drugliver

Compound | concentration at 1 h [1] | concentration at 1 h [2] | concentration at 1 h [3] | concentration at 1 h [4]
CCOCOC1[C@@H](O)[C@H](n2cc(F)c(=O)n(COCC)c2=O)O[C@@H]1C (stereo in doubt) [Compound 109, 1-((2R,3R,4R,5R)-4-(Ethoxymethoxy)-3-hydroxy-5-methyltetrahydrofuran-2-yl)-3-(ethoxymethyl)-5-fluoropyrimidine-2,4(1H,3H)-dione] | 0.0839 µg/mL | 373 ng/g | – | –
CCCCCOC(=O)Nc1nc(=O)n([C@@H]2O[C@H](C)[C@@H](O)[C@H]2O)cc1F [Capecitabine, reference compound] | – | – | 0.0884 µg/mL | 44.7 ng/g
C[C@H]1O[C@@H](n2cc(F)c(=O)[nH]c2=O)[C@@H]2OC(c3ccc(O)cc3)O[C@@H]21 (stereo partly drawn) [Compound 116, 5-Fluoro-1-((3aR,4R,6R,6aR)-2-(4-hydroxyphenyl)-6-methyltetrahydrofuro[3,4-d][1,3]dioxol-4-yl)pyrimidine-2,4(1H,3H)-dione] | 1.35 µg/mL | 978 ng/g | – | –
COc1ccc(C2O[C@@H]3[C@H](O2)[C@@H](C)O[C@H]3n2cc(F)c(=O)[nH]c2=O)cc1 (stereo partly drawn) [Compound 118, 5-Fluoro-1-((3aR,4R,6R,6aR)-2-(4-methoxyphenyl)-6-methyltetrahydrofuro[3,4-d][1,3]dioxol-4-yl)pyrimidine-2,4(1H,3H)-dione] | 3.68 µg/mL | 1220 ng/g | – | –
O=c1[nH]c(=O)n([C@H]2C[C@@H]3OP(=O)(Oc4ccccc4)OC[C@H]3O2)cc1F (stereo partly drawn) [Compound 122, 5-Fluoro-1-((4aR,6R,7aS)-2-oxido-2-phenoxytetrahydro-4H-furo[3,2-d][1,3,2]dioxaphosphinin-6-yl)pyrimidine-2,4(1H,3H)-dione] | 0.301 µg/mL | 1980 ng/g | – | –
CCCCCCCCCOP1(=O)OC[C@H]2O[C@@H](n3cc(F)c(=O)[nH]c3=O)C[C@@H]2O1 (stereo partly drawn) [Compound 132, 5-Fluoro-1-((4aR,6R,7aS)-2-(nonyloxy)-2-oxidotetrahydro-4H-furo[3,2-d][1,3,2]dioxaphosphinin-6-yl)pyrimidine-2,4(1H,3H)-dione] | 0.0599 µg/mL | 1370 ng/g | – | –
CCCCCCCOP1(=O)OC[C@H]2O[C@@H](n3cc(F)c(=O)[nH]c3=O)C[C@@H]2O1 (stereo partly drawn) [Compound 201, 5-Fluoro-1-((4aR,6R,7aS)-2-(heptyloxy)-2-oxidotetrahydro-4H-furo[3,2-d][1,3,2]dioxaphosphinin-6-yl)pyrimidine-2,4(1H,3H)-dione] | – | – | 0.109 µg/mL | 1040 ng/g
CCCCCCCCOP1(=O)OC[C@H]2O[C@@H](n3cc(F)c(=O)[nH]c3=O)C[C@@H]2O1 (stereo partly drawn) [Compound 202, 5-Fluoro-1-((4aR,6R,7aS)-2-(octyloxy)-2-oxidotetrahydro-4H-furo[3,2-d][1,3,2]dioxaphosphinin-6-yl)pyrimidine-2,4(1H,3H)-dione] | – | – | 0.158 µg/mL | 2560 ng/g
O=c1[nH]c(=O)n([C@H]2C[C@@H]3OP(=O)(OCCCC4CCCC4)OC[C@H]3O2)cc1F (stereo partly drawn) [Compound 207, 5-Fluoro-1-((4aR,6R,7aS)-2-(3-cyclopentylpropyloxy)-2-oxidotetrahydro-4H-furo[3,2-d][1,3,2]dioxaphosphinin-6-yl)pyrimidine-2,4(1H,3H)-dione] | – | – | 0.0294 µg/mL | 429 ng/g
O=c1[nH]c(=O)n([C@H]2C[C@@H]3OP(=O)(OCC4(c5ccccc5)CC4)OC[C@H]3O2)cc1F (stereo partly drawn) [Compound 217, 5-Fluoro-1-((4aR,6R,7aS)-2-oxido-2-((1-phenylcyclopropyl)methoxy)tetrahydro-4H-furo[3,2-d][1,3,2]dioxaphosphinin-6-yl)pyrimidine-2,4(1H,3H)-dione] | – | – | 0.0217 µg/mL | 255 ng/g
O=c1[nH]c(=O)n([C@H]2C[C@@H]3OP(=O)(OCc4ccc(F)cc4C4OCCO4)OC[C@H]3O2)cc1F (stereo partly drawn) [Compound 219, 1-((4aR,6R,7aS)-2-((2-(1,3-Dioxolan-2-yl)-4-fluorobenzyl)oxy)-2-oxidotetrahydro-4H-furo[3,2-d][1,3,2]dioxaphosphinin-6-yl)-5-fluoropyrimidine-2,4(1H,3H)-dione] | – | – | 0.02 µg/mL | 49.9 ng/g
C[C@H](NP(=O)(OC[C@H]1O[C@@H](n2cc(F)c(=O)[nH]c2=O)C[C@@H]1O)Oc1cccc2ccccc12)C(=O)OCc1ccccc1 (stereo partly shown) [NUC-3373, reference compound] | – | – | < 0.001 µg/mL | < 6 ng/g

Further lines, results first:

concentration at 1 h [1] | concentration at 1 h [2] | concentration at 1 h [3] | concentration at 1 h [4] | Compound
0.00781 µg/mL | < 6 ng/g | – | – | O=c1[nH]c(=O)n([C@H]2C[C@@H]3OP(=O)(OCc4ccc(Cl)cc4)OC[C@H]3O2)cc1F (single isomer, unassigned) [Compound 127]
0.0113 µg/mL | < 6 ng/g | – | – | O=c1[nH]c(=O)n([C@H]2C[C@@H]3OP(=O)(OCc4ccccc4F)OC[C@H]3O2)cc1F (stereo partly drawn) [Compound 139, 1-((4aR,6R,7aS)-2-(2-Fluorobenzyloxy)-2-oxidotetrahydro-4H-furo[3,2-d][1,3,2]dioxaphosphinin-6-yl)-5-fluoropyrimidine-2,4(1H,3H)-dione]
< 0.001 µg/mL | < 6 ng/g | – | – | CCc1ccc(COP2(=O)OC[C@H]3O[C@@H](n4cc(F)c(=O)[nH]c4=O)C[C@@H]3O2)cc1 (stereo partly drawn) [Compound 147, 1-((4aR,6R,7aS)-2-(4-Ethylbenzyloxy)-2-oxidotetrahydro-4H-furo[3,2-d][1,3,2]dioxaphosphinin-6-yl)-5-fluoropyrimidine-2,4(1H,3H)-dione]
0.00366 µg/mL | < 6 ng/g | – | – | O=c1[nH]c(=O)n([C@H]2C[C@@H]3OP(=O)(OCc4ccc(C(F)(F)F)cc4)OC[C@H]3O2)cc1F (stereo partly drawn) [Compound 156, 5-Fluoro-1-((4aR,6R,7aS)-2-oxido-2-((4-(trifluoromethyl)benzyl)oxy)tetrahydro-4H-furo[3,2-d][1,3,2]dioxaphosphinin-6-yl)pyrimidine-2,4(1H,3H)-dione]
– | – | 0.122 µg/mL | 944 ng/g | O=c1[nH]c(=O)n([C@H]2C[C@@H]3OP(=O)(OCCCc4ccccc4)OC[C@H]3O2)cc1F (stereo partly drawn) [Compound 220, 5-Fluoro-1-((4aR,6R,7aS)-2-(3-phenylpropyloxy)-2-oxidotetrahydro-4H-furo[3,2-d][1,3,2]dioxaphosphinin-6-yl)pyrimidine-2,4(1H,3H)-dione]
